From patent US20060025483A1, “(-)-Hydroxycitric acid for protection against soft tissue and arterial calcification” (priority 2004, published 2006)

Columns and labels:
ACE system = experiment: response of SBP to losartan challenge; assay type: in vivo, Spontaneously hypertensive rats (SHR); conditions: at 6 hours; SHR fed 100 mg HCA per day as new KMgHCA
Text: Many factors can positively influence blood pressure, e.g., diuretics, antioxidants, regulators of sympathetic/parasympathetic tone, compounds that improve insulin sensitivity and so forth. Therefore, losartan, an angiotensin-2 receptor blocker, was utilized to discover whether the ACE system was involved in the results discussed in Example 1.
Spontaneously hypertensive rats (SHR) were placed on a diet composed of regular rat chow (60% w/w) and table sugar (40% w/w). This diet reliably elevates blood pressure in this animal model. One group received 100 mg HCA per day in the form of a new potassium-magnesium hydroxycitrate (different from that used in Example 1) via an added 5 g HCA per kg of food mix. Systolic blood pressure and body weight were tested as in Example 1 on a weekly basis.
When losartan was injected, the SBP of both groups decreased. At 6 hours, the SBP were essentially the same. […] Thus, HCA appears to decrease angiotensin-2 in rats and to lower elevated SBP. Although insulin regulation likely is a factor in the blood pressure modulating effect of HCA, this evidence argues that inhibition of ACE is also important. […]

[1] = treated rats; cited from earlier work

O=C(O)CC(O)(C(=O)O)C(O)C(=O)O (single isomer, unassigned; (-)) [HCA, (−)-Hydroxycitric acid]
decrease in SBP after losartan injection (ACE system): −21.7±7.0
plasma levels of glucose, insulin, or free fatty acids relative to controls [1]: no significant differences in plasma levels of glucose, insulin, or free fatty acids
